Calls of active or inactive are those of the source.
What was measured:
Aspartyl aminopeptidase = Aspartyl aminopeptidase (Plasmodium falciparum 3D7, UniProt Q8I2J3); assay: Counterscreen for inhibitors of M1 and M17 aminopeptidases: QFRET-based biochemical high throughput dose response assay for inhibitors of the Plasmodium falciparum M18 Aspartyl Aminopeptidase (PFM18AAP). [Related PubChem assays: 1619 (Screening assay (M17LAP inhibitors).), 1445 (Screening assay (M1AAP inhibitors).)]
Aminopeptidase N = molecular target: T1, Aminopeptidase N (Plasmodium falciparum FcB1/Columbia, UniProt O96935); assay: malaria alanyl aminopeptidase activity blockers – biochemical, fluorogenic H-Leu-NHMec substrate, 1536-well (AID 1445); parameters: species or system Plasmodium falciparum 3D7, 3D7
T1 sequence (O96935 whole entry): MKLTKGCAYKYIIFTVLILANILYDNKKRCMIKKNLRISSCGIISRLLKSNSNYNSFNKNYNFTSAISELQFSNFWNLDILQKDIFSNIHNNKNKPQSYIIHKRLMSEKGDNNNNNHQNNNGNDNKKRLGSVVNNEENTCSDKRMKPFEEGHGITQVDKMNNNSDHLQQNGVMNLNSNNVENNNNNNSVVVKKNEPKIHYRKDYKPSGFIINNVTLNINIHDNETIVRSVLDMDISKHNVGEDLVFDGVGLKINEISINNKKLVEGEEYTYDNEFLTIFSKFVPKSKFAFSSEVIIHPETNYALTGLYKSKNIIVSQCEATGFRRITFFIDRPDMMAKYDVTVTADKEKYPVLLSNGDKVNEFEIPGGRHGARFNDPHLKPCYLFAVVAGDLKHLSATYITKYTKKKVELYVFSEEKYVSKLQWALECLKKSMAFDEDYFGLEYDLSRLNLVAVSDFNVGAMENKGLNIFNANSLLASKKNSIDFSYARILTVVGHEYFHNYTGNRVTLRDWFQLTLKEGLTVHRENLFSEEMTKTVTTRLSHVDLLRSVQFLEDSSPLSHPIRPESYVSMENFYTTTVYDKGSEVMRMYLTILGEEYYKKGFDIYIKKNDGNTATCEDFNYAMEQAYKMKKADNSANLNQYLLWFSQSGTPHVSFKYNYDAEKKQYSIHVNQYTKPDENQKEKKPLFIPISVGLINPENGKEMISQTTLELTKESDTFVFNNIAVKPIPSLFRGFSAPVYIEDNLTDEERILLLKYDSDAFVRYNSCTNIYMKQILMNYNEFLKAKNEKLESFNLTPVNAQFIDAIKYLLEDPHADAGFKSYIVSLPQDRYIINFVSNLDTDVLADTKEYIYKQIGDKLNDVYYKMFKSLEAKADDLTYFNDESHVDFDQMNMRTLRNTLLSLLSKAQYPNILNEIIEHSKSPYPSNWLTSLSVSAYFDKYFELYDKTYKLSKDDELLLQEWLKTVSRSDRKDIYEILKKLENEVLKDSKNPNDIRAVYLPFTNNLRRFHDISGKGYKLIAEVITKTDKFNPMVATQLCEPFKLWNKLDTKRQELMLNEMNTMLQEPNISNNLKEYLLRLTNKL

Procathepsin L = Procathepsin L (Homo sapiens, UniProt P07711); assay: CTSL1 protease inhibition – biochemical, QFRET, 1536-well, counter-screen for M1/M17 aminopeptidase inhibitor project, dose response (AID 2214)
Sequence of Procathepsin L (P07711 whole entry): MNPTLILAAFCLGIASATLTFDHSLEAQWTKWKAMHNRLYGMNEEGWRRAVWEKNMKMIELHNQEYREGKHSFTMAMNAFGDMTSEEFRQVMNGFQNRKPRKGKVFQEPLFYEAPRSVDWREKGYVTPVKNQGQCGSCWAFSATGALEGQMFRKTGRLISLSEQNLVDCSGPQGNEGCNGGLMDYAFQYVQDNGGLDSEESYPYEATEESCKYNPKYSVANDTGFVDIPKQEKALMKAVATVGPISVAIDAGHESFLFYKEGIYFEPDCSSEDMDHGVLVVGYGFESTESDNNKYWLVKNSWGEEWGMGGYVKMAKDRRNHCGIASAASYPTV

Danio rerio = assay: In Vivo Angiogenesis Dose-Response Confirmation. [Related pubchem assays: 732 (Assay preceding this confirmatory assay.)]; format: functional, organism-based
[1] = molecular target: Lysine-specific demethylase 4C (Homo sapiens, UniProt Q9H3R0); assay: inhibition of JMJD2C H3K9me3 demethylation – biochemical, DELFIA europium, cherry-picked samples, dose response (AID 488835); format: functional
Transthyretin = Transthyretin (Homo sapiens, UniProt P02766); assay: Luminescence-based cell-based high throughput dose response assay to identify activators of Transthyretin (TTR) transcription.; format: functional
[2] = CellTiter-Glo luminescence survival assay, SW480 colon tumor line, concentration-response curve, half-maximal inhibitory concentration (AID 1117338); format: functional
[3] = RKO cell viability reduction, dose response, CellTiter-Glo luminescence (AID 1117322); format: functional
[4] = cytotoxicity toward HCT116 cells – cell-based, CellTiter-Glo luminescence, IC50, dose response (AID 1117332); format: functional; conditions: HCT-116
[5] = SNU-C1 cell viability reduction, dose response, CellTiter-Glo luminescence (AID 1117323); format: functional, cell-based
[6] = cytotoxicity toward Colo320 cells – cell-based, CellTiter-Glo luminescence, IC50, dose response (AID 1117334); format: functional; conditions: COLO 320
[7] = cytotoxicity toward HT-29 cells – cell-based, CellTiter-Glo luminescence, IC50, dose response (AID 1117330); format: functional
[8] = Reduced DLD-1 viability, concentration-response, CellTiter-Glo luminescence (AID 1117352); format: functional
[9] = HCT116 cell viability decrease, GSK3B pretreatment – CellTiter-Glo, IC50, dose response (AID 1117339); format: functional; conditions: HCT-116
[10] = M. tuberculosis growth inhibition, HTS (AID 449762); format: functional
[11] = molecular target: G-protein coupled receptor 183 (Homo sapiens, UniProt P32249); assay: SAR confirmation of small molecule antagonists of the EBI2 receptor via a luminescent beta-arrestin assa.; format: functional
Sequence of G-protein coupled receptor 183 (P32249 whole entry): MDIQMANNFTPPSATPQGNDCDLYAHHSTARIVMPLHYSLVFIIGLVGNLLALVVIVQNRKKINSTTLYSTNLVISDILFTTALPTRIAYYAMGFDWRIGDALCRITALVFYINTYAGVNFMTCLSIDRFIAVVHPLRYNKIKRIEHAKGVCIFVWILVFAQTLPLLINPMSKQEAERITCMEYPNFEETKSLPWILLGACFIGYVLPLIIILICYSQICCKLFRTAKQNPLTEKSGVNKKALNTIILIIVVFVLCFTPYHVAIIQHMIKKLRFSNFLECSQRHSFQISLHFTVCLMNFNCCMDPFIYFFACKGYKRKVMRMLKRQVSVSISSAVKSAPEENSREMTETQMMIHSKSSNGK

Leucine aminopeptidase = molecular target: T2, Leucine aminopeptidase (Plasmodium falciparum 3D7, UniProt Q8IL11); assay: P. falciparum M17LAP inhibitors, primary screen, biochemical, fluorogenic H-Leu-NHMec substrate, 1536-well (AID 1619); format: functional
T2 sequence (Q8IL11 whole entry): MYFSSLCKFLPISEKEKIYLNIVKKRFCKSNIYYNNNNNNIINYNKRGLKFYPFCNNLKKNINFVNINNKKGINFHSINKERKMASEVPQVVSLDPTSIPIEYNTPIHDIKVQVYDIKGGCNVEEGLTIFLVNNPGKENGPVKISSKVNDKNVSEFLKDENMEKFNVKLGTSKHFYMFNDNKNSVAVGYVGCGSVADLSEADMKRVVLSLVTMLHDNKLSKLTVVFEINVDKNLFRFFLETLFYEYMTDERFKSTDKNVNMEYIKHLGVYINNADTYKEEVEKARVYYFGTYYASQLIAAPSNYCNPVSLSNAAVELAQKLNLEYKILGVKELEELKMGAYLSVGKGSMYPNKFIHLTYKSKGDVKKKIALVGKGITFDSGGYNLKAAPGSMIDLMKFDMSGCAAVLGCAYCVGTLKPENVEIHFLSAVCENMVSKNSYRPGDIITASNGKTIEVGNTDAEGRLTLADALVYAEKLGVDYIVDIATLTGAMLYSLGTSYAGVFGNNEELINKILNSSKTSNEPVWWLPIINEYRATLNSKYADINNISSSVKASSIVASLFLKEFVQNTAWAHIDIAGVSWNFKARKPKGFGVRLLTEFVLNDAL

[12] = molecular target: Heat shock protein HSP 90-alpha (Homo sapiens, UniProt P07900); assay: Luminescence-based dose response biochemical high throughput screening assay for inhibitors of the Heat Shock Protein 90 (HSP90). [Related pubchem assays: 1831 (Summary AID.), 1846 (Confirmation screen.), 1789 (Primary screen.)]
Keap1/Nrf2 = Keap1/Nrf2 (Homo sapiens, UniProt Q14145); assay: disruptors of Keap1 binding to Nrf2 peptide – biochemical, fluorescence polarization, cherry-picked samples, dose response (AID 588683)
Sequence of Keap1/Nrf2 (Q16236 whole entry): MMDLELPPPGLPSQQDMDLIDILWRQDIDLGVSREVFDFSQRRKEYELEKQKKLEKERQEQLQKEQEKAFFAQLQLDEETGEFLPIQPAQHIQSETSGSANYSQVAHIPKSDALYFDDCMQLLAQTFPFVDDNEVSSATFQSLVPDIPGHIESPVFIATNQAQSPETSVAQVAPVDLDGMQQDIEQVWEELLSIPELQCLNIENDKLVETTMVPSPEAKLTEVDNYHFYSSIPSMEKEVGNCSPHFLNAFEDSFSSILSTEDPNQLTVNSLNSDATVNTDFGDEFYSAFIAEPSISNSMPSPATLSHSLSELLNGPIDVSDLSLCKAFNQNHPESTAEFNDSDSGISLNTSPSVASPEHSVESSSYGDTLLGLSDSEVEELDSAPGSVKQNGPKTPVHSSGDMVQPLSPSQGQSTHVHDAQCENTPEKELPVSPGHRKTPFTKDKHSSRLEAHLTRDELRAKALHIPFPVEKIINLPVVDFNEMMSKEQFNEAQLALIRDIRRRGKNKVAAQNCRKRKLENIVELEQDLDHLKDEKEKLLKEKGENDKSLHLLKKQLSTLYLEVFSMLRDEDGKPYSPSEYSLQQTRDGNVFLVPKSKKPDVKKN
Sequence of Keap1/Nrf2 (Q14145 whole entry): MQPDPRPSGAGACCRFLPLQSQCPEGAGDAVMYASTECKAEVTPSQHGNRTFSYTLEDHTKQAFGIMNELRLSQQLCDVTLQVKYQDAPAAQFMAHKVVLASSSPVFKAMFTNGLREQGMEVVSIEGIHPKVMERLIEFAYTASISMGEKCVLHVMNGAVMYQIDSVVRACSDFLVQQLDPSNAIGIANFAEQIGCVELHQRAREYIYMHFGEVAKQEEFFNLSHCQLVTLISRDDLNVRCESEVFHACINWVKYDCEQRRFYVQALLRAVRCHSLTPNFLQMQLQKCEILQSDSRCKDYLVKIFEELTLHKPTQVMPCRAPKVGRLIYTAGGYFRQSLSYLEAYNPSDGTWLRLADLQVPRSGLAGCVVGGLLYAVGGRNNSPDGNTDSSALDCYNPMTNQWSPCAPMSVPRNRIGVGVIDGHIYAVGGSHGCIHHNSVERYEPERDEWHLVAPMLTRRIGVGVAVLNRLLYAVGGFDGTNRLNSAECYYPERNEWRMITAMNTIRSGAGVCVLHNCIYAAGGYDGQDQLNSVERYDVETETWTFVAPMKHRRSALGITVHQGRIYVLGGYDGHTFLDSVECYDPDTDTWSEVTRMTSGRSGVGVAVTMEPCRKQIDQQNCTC

[13] = molecular target: Glutathione-S-transferase (Schistosoma japonicum, UniProt Q26513); assay: GST-antibody interaction or FRET quenching – biochemical, TR-FRET, artefact control for Vif-APOBEC3G degradation inhibitor project, dose response (AID 1117362); format: functional
Sequence of Glutathione-S-transferase (Q26513 whole entry): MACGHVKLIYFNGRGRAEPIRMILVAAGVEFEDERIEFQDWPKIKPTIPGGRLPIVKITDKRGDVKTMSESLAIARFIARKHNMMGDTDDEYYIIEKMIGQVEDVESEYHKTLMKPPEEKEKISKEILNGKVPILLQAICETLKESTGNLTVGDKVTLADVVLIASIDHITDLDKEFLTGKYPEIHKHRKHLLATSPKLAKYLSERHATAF

[14] = growth inhibition of yeast DHODH-expressing 3D7 parasites – SYBR Green, dry powder samples, dose response (AID 1159570); format: functional, cell-based;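 note: parasite growth measured after 72 hours of compound exposure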
[15] = P. falciparum Dd2 growth inhibitors, dose response, SYBR Green, cherry-picked samples (AID 1159567); format: functional, cell-based
[16] = Dd2 malaria parasite growth inhibition potency – SYBR Green, dry powder samples, dose response (AID 1159566); format: functional, cell-based;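 note: potency for growth inhibition with lower SYBR green DNA signal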
[17] = toxicity to human hepatoma HepG2 cells – cell-based, cherry-picked samples, cytotoxicity control, dose response (AID 1159577); format: functional
[18] = growth inhibition of PfATP4-mutant resistant parasites – NITD609-resistant line, SYBR Green, dry powder, dose response (AID 1159571); format: functional, cell-based;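 note: parasites synchronized at ring stage by sorbitol before testing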
[19] = molecular target: Sphingosine 1-phosphate receptor 2 (Homo sapiens, UniProt O95136); assay: Dose Response Cell Based Assay for Agonists of the S1P2 Receptor. [Related pubchem assays: 729, 736, 843 ]; format: functional
Sequence of Sphingosine 1-phosphate receptor 2 (O95136 whole entry): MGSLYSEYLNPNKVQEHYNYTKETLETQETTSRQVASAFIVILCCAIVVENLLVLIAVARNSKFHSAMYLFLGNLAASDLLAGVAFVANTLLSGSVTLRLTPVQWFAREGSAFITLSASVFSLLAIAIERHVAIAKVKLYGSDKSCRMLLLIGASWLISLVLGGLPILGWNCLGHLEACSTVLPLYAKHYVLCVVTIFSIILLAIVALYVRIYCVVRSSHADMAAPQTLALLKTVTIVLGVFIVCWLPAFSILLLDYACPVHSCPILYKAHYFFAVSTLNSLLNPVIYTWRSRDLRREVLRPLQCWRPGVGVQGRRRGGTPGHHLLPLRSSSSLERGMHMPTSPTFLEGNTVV

[20] = viability inhibitors of stage V gametocytes – luminescence, dose response (AID 1117278); format: functional, cell-based;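 note: gametocytes exposed to compound for 24 hours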
[21] = viability loss in human Jurkat cells – cell-based, luminescence, cytotoxicity control for P. falciparum gametocyte viability project, dose response (AID 1117277); format: functional;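 note: potency reflects loss of cellular ATP meaning fewer viable cells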
[22] = viability loss in Vero cells – cytotoxicity control for Vif-APOBEC3G degradation inhibitor project, dose response (AID 1117358); format: functional; conditions: Vero
[23] = molecular target: Bifunctional protein GlmU (Mycobacterium tuberculosis, UniProt P9WMN3); assay: Inhibitors of Mycobacterial Glucosamine-1-phosphate acetyl transferase (GlmU). Secondary screen.; parameters: species or system Mycobacterium tuberculosis H37Rv
Sequence of Bifunctional protein GlmU (P9WMN3 whole entry): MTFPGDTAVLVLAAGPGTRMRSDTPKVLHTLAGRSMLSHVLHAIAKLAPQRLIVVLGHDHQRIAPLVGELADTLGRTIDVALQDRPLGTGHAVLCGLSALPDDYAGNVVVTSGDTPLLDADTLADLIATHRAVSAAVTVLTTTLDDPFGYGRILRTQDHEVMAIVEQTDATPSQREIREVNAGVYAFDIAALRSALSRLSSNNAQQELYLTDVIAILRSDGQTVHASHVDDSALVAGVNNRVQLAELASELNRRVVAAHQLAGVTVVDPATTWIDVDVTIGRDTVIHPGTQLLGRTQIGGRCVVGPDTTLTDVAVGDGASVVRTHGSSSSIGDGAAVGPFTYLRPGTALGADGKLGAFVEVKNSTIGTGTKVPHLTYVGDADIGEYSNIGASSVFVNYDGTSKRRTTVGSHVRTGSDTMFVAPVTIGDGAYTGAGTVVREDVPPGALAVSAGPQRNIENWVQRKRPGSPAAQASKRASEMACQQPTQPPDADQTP

Genome polyprotein = Genome polyprotein (dengue virus type 2, UniProt P29990); assay: flavivirus cap methylation enzyme inhibition – biochemical, confirmation dose response, primary screen (AID 588689); format: functional
[24] = molecular target: T3, Carboxy-terminal domain RNA polymerase II polypeptide A small phosphatase 1 (Homo sapiens, UniProt Q9GZU7); assay: CTDSP1 inhibitors, concentration-response, biochemical, absorbance readout, ultra-high-throughput screen actives (AID 540297); format: functional
T3 sequence (Q9GZU7 whole entry): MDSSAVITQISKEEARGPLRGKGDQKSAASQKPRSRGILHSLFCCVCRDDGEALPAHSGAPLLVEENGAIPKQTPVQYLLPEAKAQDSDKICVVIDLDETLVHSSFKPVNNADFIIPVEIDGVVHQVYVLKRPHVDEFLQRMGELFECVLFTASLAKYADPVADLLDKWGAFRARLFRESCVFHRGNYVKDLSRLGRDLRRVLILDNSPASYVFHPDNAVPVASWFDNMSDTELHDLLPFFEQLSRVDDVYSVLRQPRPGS

[25] = molecular target: Tyrosine-protein phosphatase non-receptor type 11 (Homo sapiens, UniProt Q06124); assay: PTPN11 enzyme inhibitors – biochemical, selectivity assay for STEP inhibitor project, dose response (AID 602367); format: functional; conditions: read-out: IC50_Mean
Sequence of Tyrosine-protein phosphatase non-receptor type 11 (Q06124 whole entry): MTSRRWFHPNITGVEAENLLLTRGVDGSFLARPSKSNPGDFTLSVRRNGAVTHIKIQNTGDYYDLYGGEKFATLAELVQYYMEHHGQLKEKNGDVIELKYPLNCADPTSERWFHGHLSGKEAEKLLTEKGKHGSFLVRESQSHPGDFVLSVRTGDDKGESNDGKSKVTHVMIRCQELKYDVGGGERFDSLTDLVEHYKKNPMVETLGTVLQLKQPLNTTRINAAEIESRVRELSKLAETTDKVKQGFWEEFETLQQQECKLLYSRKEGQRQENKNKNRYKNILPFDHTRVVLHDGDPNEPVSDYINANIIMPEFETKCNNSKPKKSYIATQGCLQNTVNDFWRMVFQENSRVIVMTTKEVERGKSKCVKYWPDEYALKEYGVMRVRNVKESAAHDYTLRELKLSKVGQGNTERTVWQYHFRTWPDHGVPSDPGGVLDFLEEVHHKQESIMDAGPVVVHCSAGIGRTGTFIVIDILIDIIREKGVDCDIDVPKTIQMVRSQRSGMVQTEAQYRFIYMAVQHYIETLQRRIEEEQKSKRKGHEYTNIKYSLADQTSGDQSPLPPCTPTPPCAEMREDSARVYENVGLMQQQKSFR

[26] = molecular target: Tyrosine-protein phosphatase non-receptor type 5 (Homo sapiens, UniProt P54829); assay: PTPN5 enzyme inhibition – biochemical, fluorescence intensity, uHTS hits, confirmation (AID 602372); format: functional; conditions: read-out: IC50_Mean
Sequence of Tyrosine-protein phosphatase non-receptor type 5 (P54829 whole entry): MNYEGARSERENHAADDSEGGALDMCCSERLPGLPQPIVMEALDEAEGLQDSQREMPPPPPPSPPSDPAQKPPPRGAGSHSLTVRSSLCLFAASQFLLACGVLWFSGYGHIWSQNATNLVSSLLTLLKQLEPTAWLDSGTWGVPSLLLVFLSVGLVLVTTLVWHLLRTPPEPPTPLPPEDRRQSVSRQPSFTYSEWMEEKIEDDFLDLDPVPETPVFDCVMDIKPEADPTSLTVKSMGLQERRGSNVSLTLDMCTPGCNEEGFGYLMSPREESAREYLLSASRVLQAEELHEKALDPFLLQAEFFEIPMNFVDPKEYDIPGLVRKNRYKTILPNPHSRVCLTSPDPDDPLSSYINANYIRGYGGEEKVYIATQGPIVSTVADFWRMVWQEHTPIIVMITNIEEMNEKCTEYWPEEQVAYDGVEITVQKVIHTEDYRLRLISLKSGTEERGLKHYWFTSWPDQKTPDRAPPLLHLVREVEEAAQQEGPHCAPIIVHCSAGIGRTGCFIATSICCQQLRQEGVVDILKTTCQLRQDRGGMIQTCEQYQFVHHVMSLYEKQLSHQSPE

[27] = molecular target: Dual specificity protein phosphatase 3 (Homo sapiens, UniProt P51452); assay: VHR phosphatase inhibition, dose response, selectivity assay for STEP inhibitor project, biochemical (AID 602374); format: functional; conditions: read-out: IC50_Mean
Sequence of Dual specificity protein phosphatase 3 (P51452 whole entry): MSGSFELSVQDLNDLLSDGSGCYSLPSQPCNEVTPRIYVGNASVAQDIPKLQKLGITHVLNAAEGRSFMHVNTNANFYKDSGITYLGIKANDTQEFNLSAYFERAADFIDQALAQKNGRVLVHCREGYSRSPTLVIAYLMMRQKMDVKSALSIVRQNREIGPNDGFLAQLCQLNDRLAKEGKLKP

Sequence of Aspartyl aminopeptidase (Q8I2J3 whole entry): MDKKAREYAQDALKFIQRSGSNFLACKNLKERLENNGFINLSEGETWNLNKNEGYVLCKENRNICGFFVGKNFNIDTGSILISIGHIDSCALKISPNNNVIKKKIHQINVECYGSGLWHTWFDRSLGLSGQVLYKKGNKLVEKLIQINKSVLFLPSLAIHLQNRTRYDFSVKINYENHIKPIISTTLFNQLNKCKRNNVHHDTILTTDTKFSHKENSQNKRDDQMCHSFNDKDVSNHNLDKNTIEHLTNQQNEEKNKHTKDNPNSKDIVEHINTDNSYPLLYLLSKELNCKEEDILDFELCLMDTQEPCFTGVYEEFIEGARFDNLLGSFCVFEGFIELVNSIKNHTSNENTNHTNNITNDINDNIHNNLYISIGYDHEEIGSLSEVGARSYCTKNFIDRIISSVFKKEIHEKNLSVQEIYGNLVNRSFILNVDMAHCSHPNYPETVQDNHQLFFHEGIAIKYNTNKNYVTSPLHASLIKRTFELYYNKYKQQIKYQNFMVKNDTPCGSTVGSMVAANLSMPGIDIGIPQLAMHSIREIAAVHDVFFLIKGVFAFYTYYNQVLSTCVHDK

O=C(NCCC1=CCCCC1)C1CCN(S(=O)(=O)c2ccc(Br)s2)CC1
IC50 (Aspartyl aminopeptidase): > 73.5 µM (not active) | IC50 (Aminopeptidase N): 13.2 µM (active) | IC50 (Procathepsin L): > 59.6 µM (not active)

Cc1cccc2c1NC(=O)/C2=C1\Nc2ccc(Br)cc2\C1=N/O
IC50 (Danio rerio): 4.01 µM (not active)

Cc1ccc(C2CC(c3ccccc3)=NN2C(S)=Nc2ccccc2)o1 (stereo not given)
AC50 [1]: 20.5 µM (active) | EC50 (Transthyretin): > 167 µM (inactive)

C=CCCCCCCCCC(=O)OC
IC50 [2]: > 20 µM (inactive) | IC50 [3]: > 20 µM (inactive) | IC50 [4]: > 20 µM (inactive) | IC50 [5]: > 20 µM (inactive) | IC50 [6]: > 20 µM (inactive) | IC50 [7]: > 20 µM (inactive) | IC50 [8]: > 20 µM (inactive) | IC50 [9]: > 20 µM (inactive)

CC(=O)N1C(Nc2ccc(Cl)cc2)CCN1c1ccccc1 (stereo not given)
IC50 [10]: > 100 µM (active)

O=C(/C=C/c1ccc(F)cc1)N1CCN(S(=O)(=O)c2ccc([N+](=O)[O-])cc2)CC1
IC50 [11]: 0.0129 µM (active)

COc1cc(/C=N/Nc2ccc(Cl)c(C(=O)O)c2)ccc1OC(=O)c1ccco1
IC50 (Leucine aminopeptidase): 48.8 µM (active) | IC50 [12]: 0.792 µM (active)

COC(=O)C1=COC(C)C2CN3CCc4c([nH]c5ccccc45)C3CC12 (stereo not given)
AC50 (Keap1/Nrf2): > 52 µM (inactive) | IC50 [13]: > 100 µM (active)

C[C@H](CO)N1C[C@H](C)[C@@H](CN(C)CC2CC2)Oc2ccc(NC(=O)Nc3cccc4ccccc34)cc2CC1=O
AC50 [14]: 2.09 µM (active) | AC50 [15]: 2.93 µM (active) | AC50 [16]: 1.72 µM (active) | AC50 [17]: > 39 µM (inactive) | AC50 [18]: 3.39 µM (active)

NC(=O)c1ccc(NC(=O)C2CCCO2)cc1 (stereo not given)
EC50 [19]: > 50 µM (not active)

CC(C)OC(=O)c1c(NC(=O)c2ccco2)sc2c1CCCC2
IC50 [20]: > 109 µM (inactive) | IC50 [21]: > 83.2 µM (inactive)

O=C(Nc1cccc(Cl)c1)C1=Cc2cc(Cl)ccc2OC1
CC50 [22]: > 40 µM (active)

CCc1c(C)[nH]n(-c2ccc(Oc3ccccc3)c(S(=O)(=O)O)c2)c1=O
IC50 [23]: 157 µM (active) | IC50 (Genome polyprotein): 84.5 µM (active) | IC50 [24]: 4.83 µM (active) | IC50 [25]: 3.1 µM (active) | IC50 [26]: 58.8 µM (inactive) | IC50 [27]: 3.6 µM (active)
